Experimental data from patent EP1824486B1, “BENZDIOXANE PIPERAZINE DERIVATIVES WITH A COMBINATION OF AFFINITY FOR DOPAMINE-D2 RECEPTORS AND SEROTONIN REUPTAKE SITES” (Solvay Pharmaceuticals B.V., priority 2004, dated 2006).

Assays:
[1] = target: T1, serotonin reuptake sites (Rattus norvegicus, UniProt P31652); experiment: In vitro affinity for serotonin reuptake sites ([3H]-paroxetine binding assay, Habert et al.); settings: average values from three independent experiments; read-out: in vitro affinity 5-HT reuptake binding Ki
T1 construct: from tissue; host or cells: rat cortical membranes (from the title of the cited method only)
T1 sequence (P31652 whole entry): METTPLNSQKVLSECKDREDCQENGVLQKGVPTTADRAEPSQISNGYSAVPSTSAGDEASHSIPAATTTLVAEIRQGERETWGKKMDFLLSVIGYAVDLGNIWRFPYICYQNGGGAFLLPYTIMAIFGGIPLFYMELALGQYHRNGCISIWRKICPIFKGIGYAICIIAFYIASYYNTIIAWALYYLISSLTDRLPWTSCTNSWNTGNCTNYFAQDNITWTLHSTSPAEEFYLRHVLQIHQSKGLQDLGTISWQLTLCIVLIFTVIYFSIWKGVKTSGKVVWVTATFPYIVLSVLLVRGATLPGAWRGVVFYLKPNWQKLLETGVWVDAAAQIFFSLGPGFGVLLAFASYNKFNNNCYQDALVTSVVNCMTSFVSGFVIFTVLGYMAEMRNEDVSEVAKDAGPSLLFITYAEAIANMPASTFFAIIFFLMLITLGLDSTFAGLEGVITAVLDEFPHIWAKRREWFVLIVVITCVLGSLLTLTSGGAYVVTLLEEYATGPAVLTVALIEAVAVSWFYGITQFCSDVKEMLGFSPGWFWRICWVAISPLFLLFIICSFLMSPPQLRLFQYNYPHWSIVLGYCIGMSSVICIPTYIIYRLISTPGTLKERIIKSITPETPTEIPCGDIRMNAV
Excerpt: In vitro affinity for serotonin reuptake sites

[2] = target: T2, dopamine D2 receptors (Mus musculus, UniProt P61168); experiment: Antagonism of apomorphine-induced climbing behaviour in mice (APO-climb); settings: po, read-out: in vivo activity Dopamine-D2 APO-climb* ED50 mg/kg po
T2 construct: antagonize apomorphine-induced climbing behaviour in mice; from tissue; host or cells: living mice (in vivo behavioural model)
T2 sequence (P61168 whole entry): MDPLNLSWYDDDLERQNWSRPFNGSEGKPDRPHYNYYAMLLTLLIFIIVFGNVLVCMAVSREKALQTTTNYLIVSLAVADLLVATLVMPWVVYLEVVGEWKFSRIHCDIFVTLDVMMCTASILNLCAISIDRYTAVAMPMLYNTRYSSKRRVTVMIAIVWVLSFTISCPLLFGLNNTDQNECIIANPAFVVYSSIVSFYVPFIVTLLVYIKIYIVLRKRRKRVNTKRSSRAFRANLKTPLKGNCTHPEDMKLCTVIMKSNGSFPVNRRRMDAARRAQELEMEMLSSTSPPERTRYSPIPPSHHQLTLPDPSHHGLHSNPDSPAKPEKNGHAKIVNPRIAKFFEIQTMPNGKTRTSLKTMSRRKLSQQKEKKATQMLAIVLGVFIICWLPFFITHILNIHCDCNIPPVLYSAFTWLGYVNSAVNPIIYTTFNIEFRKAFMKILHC

[3] = target: T3, serotonin reuptake (Mus musculus, UniProt Q60857); experiment: Potentiation of 5-HTP induced behaviour in mice; settings: po, read-out: in vivo activity 5-HT reuptake 5-HTP** ED50 mg/kg po
T3 construct: they potentiate 5-HTP induced behaviour in mice; from tissue; host or cells: living mice (in vivo behavioural model)
T3 sequence (Q60857 whole entry): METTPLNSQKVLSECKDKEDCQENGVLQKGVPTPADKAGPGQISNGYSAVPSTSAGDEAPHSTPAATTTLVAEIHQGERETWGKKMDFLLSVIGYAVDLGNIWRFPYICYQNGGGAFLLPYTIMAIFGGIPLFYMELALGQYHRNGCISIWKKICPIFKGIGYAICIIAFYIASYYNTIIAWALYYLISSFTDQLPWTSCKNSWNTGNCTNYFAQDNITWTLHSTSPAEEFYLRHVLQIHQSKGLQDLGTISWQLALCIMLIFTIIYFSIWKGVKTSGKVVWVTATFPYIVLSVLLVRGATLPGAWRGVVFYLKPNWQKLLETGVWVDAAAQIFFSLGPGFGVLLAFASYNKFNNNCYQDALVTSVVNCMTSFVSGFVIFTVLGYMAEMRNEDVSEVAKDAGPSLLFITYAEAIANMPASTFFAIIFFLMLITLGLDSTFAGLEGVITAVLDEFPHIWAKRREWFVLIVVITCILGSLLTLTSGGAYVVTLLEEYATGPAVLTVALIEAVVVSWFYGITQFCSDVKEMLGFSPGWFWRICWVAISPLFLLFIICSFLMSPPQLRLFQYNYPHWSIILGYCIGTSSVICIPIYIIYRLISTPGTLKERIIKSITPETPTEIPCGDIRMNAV

Row | Structure (SMILES) | Ki [1] | ED50 [2] | ED50 [3]
1 | Clc1cccc2c(CCCN3CCN(c4cccc5c4OCCO5)CC3)c[nH]c12 [5l, 3-{3-[4-(2,3-Dihydro-benzo[1,4]dioxin-5-yl)-piperazin-1-yl]-propyl}-7-chloro-1H-indole] | 7.9 ± 2.8 nM |  | 
2 | c1cc2c(c(N3CCN(Cc4c[nH]c5ccccc45)CC3)c1)OCCO2 [compound 5a, 3-[4-(2,3-Dihydro-benzo[1,4]dioxin-5-yl)-piperazin-1-yl-methyl]-1H-indole] | 176 ± 59 nM |  | 
3 | c1cc2c(c(N3CCN(CCCc4c[nH]c5ccccc45)CC3)c1)OCCO2 [compound 5b, 3-{3-[4-(2,3-Dihydro-benzo[1,4]dioxin-5-yl)-piperazin-1-yl]-propyl}-1H-indole] | 0.4 ± 0.1 nM | 10 mg/kg | 22 mg/kg
4 | c1cc2c(c(N3CCN(CCCCCc4c[nH]c5ccccc45)CC3)c1)OCCO2 [compound 5c, 3-{5-[4-(2,3-Dihydro-benzo[1,4]dioxin-5-yl)-piperazin-1-yl]-pentyl}-1H-indole] | 37 ± 3 nM |  | 
5 | Fc1cccc2[nH]cc(CCCN3CCN(c4cccc5c4OCCO5)CC3)c12 [compound 5d, 3-{3-[4-(2,3-Dihydro-benzo[1,4]dioxin-5-yl)-piperazin-1-yl]-propyl}-4-fluoro-1H-indole] | 0.4 ± 0.1 nM | 13 mg/kg | 32 mg/kg
6 | Fc1ccc2[nH]cc(CCCN3CCN(c4cccc5c4OCCO5)CC3)c2c1 [compound 5e, 3-{3-[4-(2,3-Dihydro-benzo[1,4]dioxin-5-yl)-piperazin-1-yl]-propyl}-5-fluoro-1H-indole] | 0.3 ± 0.1 nM |  | 2 mg/kg
7 | Fc1ccc2c(CCCN3CCN(c4cccc5c4OCCO5)CC3)c[nH]c2c1 [compound 5f, 3-{3-[4-(2,3-Dihydro-benzo[1,4]dioxin-5-yl)-piperazin-1-yl]-propyl}-6-fluoro-1H-indole] | 1.6 ± 0.2 nM | 9 mg/kg | 
8 | Fc1cccc2c(CCCN3CCN(c4cccc5c4OCCO5)CC3)c[nH]c12 [compound 5g, 3-{3-[4-(2,3-Dihydro-benzo[1,4]dioxin-5-yl)-piperazin-1yl]-propyl}-7-fluoro-1H-indole] | 0.6 ± 0.1 nM |  | 28.4 mg/kg
9 | COc1ccc2[nH]cc(CCCN3CCN(c4cccc5c4OCCO5)CC3)c2c1 [compound 5h, 3-{3-[4-(2,3-Dihydro-benzo[1,4]dioxin-5-yl)-piperazin-1-yl]-propyl}-5-methoxy-1H-indole] | 14 ± 4 nM |  | 
10 | Clc1cccc2[nH]cc(CCCN3CCN(c4cccc5c4OCCO5)CC3)c12 [compound 5i, 3-{3-[4-(2,3-Dihydro-benzo[1,4]dioxin-5-yl)-piperazin-1-yl]-propyl}-4-chloro-1H-indole] | 1.4 ± 0.4 nM |  | 
11 | Clc1ccc2c(CCCN3CCN(c4cccc5c4OCCO5)CC3)c[nH]c2c1 [compound 5k, 3-{3-[4-(2,3-Dihydro-benzo[1,4]dioxin-5-yl)-piperazin-1-yl]-propyl}-6-chloro-1H-indole] | 2 ± 0.7 nM | 4.5 mg/kg | 86 mg/kg
12 | Cc1cccc2c(CCCN3CCN(c4cccc5c4OCCO5)CC3)c[nH]c12 [compound 5n, 3-{3-[4-(2,3-Dihydro-benzo[1,4]dioxin-5-yl)-piperazin-1-yl]-propyl}-7-methyl-1H-indole] | 12 ± 5 nM |  | 
13 | c1cc2c(c(N3CCN(CCCc4c[nH]c5ccccc45)CC3)c1)CCCO2 [compound 14, 3-[3-(4-chroman-5-yl-piperazine-1-yl)-propyl]-1H-indole] | 1.1 ± 0.3 nM |  | 
